Laboratory results as given in US20020183313A1, “1,4-benzodiazepinones and their uses as CCK antagonists” (Fujisawa Pharmaceutical Co., Ltd., priority 1996, published 2002).

Legend:
[1] = target: T1, guinea-pig cerebral cortical membranes (125I-CCK-8 binding) (Cavia porcellus, UniProt H0VZC5); experiment: [125I]CCK-8 binding to guinea-pig cerebral cortical membranes; conditions: test compound 1×10^−8 M; 50 pM 125I-CCK-8; 60 minutes at 37° C.
T1 construct: from tissue; host or cells: guinea-pig cerebral cortex membranes
T1 sequence (H0VZC5 1-426): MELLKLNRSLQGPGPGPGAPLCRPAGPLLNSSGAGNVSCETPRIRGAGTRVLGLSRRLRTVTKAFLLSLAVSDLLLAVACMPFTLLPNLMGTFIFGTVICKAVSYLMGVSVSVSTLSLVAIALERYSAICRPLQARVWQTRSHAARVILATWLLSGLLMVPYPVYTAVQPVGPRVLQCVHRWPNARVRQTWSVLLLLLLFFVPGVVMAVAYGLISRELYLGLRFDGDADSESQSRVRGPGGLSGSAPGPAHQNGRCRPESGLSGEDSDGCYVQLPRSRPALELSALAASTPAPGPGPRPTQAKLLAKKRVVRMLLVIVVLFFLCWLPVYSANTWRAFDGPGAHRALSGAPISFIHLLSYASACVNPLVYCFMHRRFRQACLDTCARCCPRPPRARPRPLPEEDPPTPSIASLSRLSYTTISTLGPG
Experimental: [^125I]CCK-8 binding to guinea-pig cerebral cortical membranes
Guinea-pigs were killed by decapitation and bled to death. Cerebral cortex was removed, minced in a small quantity of 50 mM Tris-HCl buffer (pH 7.4), and homogenized in 20 vol. of the buffer by a glass-teflon homogenizer. The homogenate was centrifuged at 30000× g (16000 rpm) for 10 minutes. The pellet was then resuspended in the same buffer by a glass-teflon homogenizer and recentrifuged at 30000× g for 10 minutes. This procedure (washings) was repeated twice more. The final pellet (membrane) was suspended in incubation medium (see below) so as to obtain a final protein concentration of 4 mg/ml and frozen at −80° C. All manipulations were done at 0-4° C.
(ii) Receptor Binding Assay
The composition of incubation medium was as follows:
10 mM HEPES (pH 6.5), 5 mM MgCl2, 1 mM EGTA, 130 mM NaCI and 0.25 mg/ml bacitracin. Frozen membranes were thawed and aliquots (400 μg, protein) were incubated for 60 minutes under shaking at 37° C. in plastic tubes in 500 μL of incubation medium with 50 pM ^125I-CCK-8 in the presence or absence of test compound (1×10^−8 M). […] After washing the filter with 50 mM Tris-HCl (pH 7.4) buffer containing 0.1% BSA, the radioactivity of the filter was countered. […] The effect of the test compound was expressed as % inhibition of specific ′^125I-CCK-8 binding.

[2] = test system: CCK-B; experiment: Receptor binding studies, CCK-B; conditions: ratio IC50 CCK-A / IC50 CCK-B
Experimental: (§1) Receptor binding studies and gastric emptying in mice
(§2) The tests were carried out in accordance with the method described at pages 571 to 572 in the following literature;
(§3) Harunobu Ito, Hajime Sogabe et al., The Journal of Pharmacology and Experimental Therapeutics, 571, No.2, Vol.268 (1994).

[3] = target: T2, CCK-B (UniProt H0VZC5); experiment: Receptor binding studies, CCK-B
T2 construct: IC50 (nM) for CCK-B
T2 sequence (H0VZC5 1-426): T1 sequence (H0VZC5 1-426)
Experimental: as §1, §2, §3

[4] = target: T3, CCK-A (UniProt P30551); experiment: Receptor binding studies, CCK-A
T3 sequence (P30551 1-444): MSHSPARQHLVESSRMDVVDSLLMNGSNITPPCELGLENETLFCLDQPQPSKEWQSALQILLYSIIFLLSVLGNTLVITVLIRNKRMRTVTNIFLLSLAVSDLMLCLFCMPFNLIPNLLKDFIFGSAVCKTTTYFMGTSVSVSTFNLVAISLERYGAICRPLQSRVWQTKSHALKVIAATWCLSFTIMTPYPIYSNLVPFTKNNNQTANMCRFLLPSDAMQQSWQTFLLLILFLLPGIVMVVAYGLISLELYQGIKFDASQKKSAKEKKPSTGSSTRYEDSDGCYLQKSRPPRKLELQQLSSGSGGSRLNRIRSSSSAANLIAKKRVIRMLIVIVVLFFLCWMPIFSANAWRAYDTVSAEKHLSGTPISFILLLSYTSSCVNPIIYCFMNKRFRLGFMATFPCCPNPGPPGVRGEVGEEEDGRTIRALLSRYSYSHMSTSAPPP
Experimental: as §1, §2, §3

[5] = test system: mice; experiment: Gastric emptying in mice; type: in vivo
Experimental: as §1, §2, §3

| melting point | Structure (SMILES) | also measured |
| --- | --- | --- |
| 199 to 208 °C | CC(=O)c1ccccc1CN1C(=O)C(NC(=O)Nc2cccc(-c3nnn[nH]3)c2)N=C(C2CCCCC2)c2cccc(C)c21 (racemic) [Example 51, N-[(3RS)-1-(2-acetylbenzyl)-5-cyclohexyl-2,3-dihydro-9-methyl-2-oxo-1H-1,4-benzodiazepin-3-yl]-N′-[3-(tetrazol-5-yl)phenyl]urea] | – |
| 159.3 to 169.6 °C | Cc1cccc(NC(=O)NC2N=C(C3CCCCC3)c3cccc(C)c3N(CC(=O)C3CCCCC3)C2=O)c1 (racemic) [Example 54, N-[(3RS)-5-Cyclohexyl-1-cyclohexylcarbonylmethyl-2,3-dihydro-9-methyl-2-oxo-1H-1,4-benzodiazepin-3-yl]-N′-(3-methylphenyl)urea] | – |
| 171.3 to 174.6 °C | CC1=NC(NC(=O)Nc2cccc(C)c2)C(=O)N(CC(=O)C2CCCCCC2)c2c(C)cccc21 (racemic) [Example 63, N-[(3RS)-1-Cycloheptylcarbonylmethyl-2,3-dihydro-5,9-dimethyl-2-oxo-1H-1,4-benzodiazepin-3-yl]-N′-(3-methylphenyl)urea] | – |
| 150.1 to 155.5 °C | CC1=NC(NC(=O)Nc2cccc(C)c2)C(=O)N(CC(=O)C2CCCC2)c2c(C)cccc21 (racemic) [Example 65, N-[(3RS)-1-Cyclopentylcarbonylmethyl-2,3-dihydro-5,9-dimethyl-2-oxo-1H-1,4-benzodiazepin-3-yl]-N′-(3-methylphenyl)urea] | – |
| 189 to 189.5 °C | CCC1=NC(NC(=O)Nc2cccc(C)c2)C(=O)N(CC(=O)N2CCCCCCC2)c2c(C)cccc21 (racemic) [Example 66, N-[(3RS)-1-(Azacyclooctan-1-yl)carbonylmethyl-2,3-dihydro-5-ethyl-9-methyl-2-oxo-1H-1,4-benzodiazepin-3-yl]-N′-(3-methylphenyl)urea] | – |
| 131.7 to 132.8 °C | Cc1cccc(NC(=O)NC2N=C(C(C)C)c3cccc(C)c3N(CC(=O)N3CCCCCCC3)C2=O)c1 (racemic) [Example 67, N-[(3RS)-1-(Azacyclooctan-1-yl)carbonylmethyl-2,3-dihydro-5-isopropyl-9-methyl-2-oxo-1H-1,4-benzodiazepin-3-yl]-N′-(3-methylphenyl)urea] | – |
| 131.6 to 133.4 °C | Cc1cccc(NC(=O)NC2N=C(CC(C)C)c3cccc(C)c3N(CC(=O)N3CCCCCCC3)C2=O)c1 (racemic) [Example 69, N-[(3RS)-1-(Azacyclooctan-1-yl)carbonylmethyl-2,3-dihydro-5-isobutyl-9-methyl-2-oxo-1H-1,4-benzodiazepin-3-yl]-N′-(3-methylphenyl)urea] | – |
| 153.6 to 155.3 °C | Cc1cccc(NC(=O)NC2N=C(C3CCCCC3)c3cccc(C)c3N(CC(=O)N3CCCCCCC3)C2=O)c1 (racemic) [Example 70, N-[(3RS)-1-(Azacyclooctan-1-yl)carbonylmethyl-5-cyclohexyl-2,3-dihydro-9-methyl-2-oxo-1H-1,4-benzodiazepin-3-yl]-N′-(3-methylphenyl)urea] | – |
| 214.5 to 216 °C | Cc1cccc(NC(=O)NC2N=C(CO)c3cccc(C)c3N(CC(=O)N3CCCCCCC3)C2=O)c1 (racemic) [Example 71-2, N-[(3RS)-1-(Azacyclooctan-1-yl)carbonylmethyl-2,3-dihydro-5-hydroxymethyl-9-methyl-2-oxo-1H-1,4-benzodiazepin-3-yl]-N′-(3-methylphenyl)urea] | – |
| 162.9 to 164.4 °C | CC1=NC(NC(=O)Nc2cccc(C)c2)C(=O)N(CC(=O)C2CCCCCCC2)c2c(C)cccc21 (racemic) [Example 72, N-[(3RS)-1-Cyclooctylcarbonylmethyl-2,3-dihydro-5,9-dimethyl-2-oxo-1H-1,4-benzodiazepin-3-yl]-N′-(3-methylphenyl)urea] | – |
| 152.3 to 154.8 °C | Cc1cccc(NC(=O)NC2N=C(CC(C)C)c3cccc(C)c3N(CC(=O)C3CCCCC3)C2=O)c1 (racemic) [Example 73, N-[(3RS)-1-Cyclohexylcarbonylmethyl-2,3-dihydro-5-isobutyl-9-methyl-2-oxo-1H-1,4-benzodiazepin-3-yl]-N′-(3-methylphenyl)urea] | – |

Continued, molecule first:

| Structure (SMILES) | melting point | also measured |
| --- | --- | --- |
| CC(=O)c1sccc1CN1C(=O)C(NC(=O)Nc2cccc(C)c2)N=C(C(C)C)c2ccccc21 (racemic) [(2)] | – | Inhibition (%) of specific 125I-CCK-8 binding [1]: 97% |
| CCC1=NC(NC(=O)Nc2cccc(C)c2)C(=O)N(CC(=O)C2CCCCC2)c2c(C)cccc21 (racemic) [(B), N-[(3RS)-1-cyclohexylcarbonylmethyl-2,3-dihydro-5-ethyl-9-methyl-2-oxo-1H-1,4-benzodiazepin-3-yl]-N′-(3-methylphenyl)urea] | 161.2 to 164 °C | selectivity A/B [2]: 0.56; IC50 [3]: 1.6 nM; IC50 [4]: 0.9 nM; Gastric emptying ID50 [5]: 0.4 mg/kg |
| Cc1cccc(NC(=O)NC2N=C(C3CC3)c3cccc(C)c3N(CC(=O)C3CCCCC3)C2=O)c1 (racemic) [(D), N-[(3RS)-1-cyclohexylcarbonylmethyl-5-cyclopropyl-2,3-dihydro-9-methyl-2-oxo-1H-1,4-benzodiazepin-3-yl]-N′-(3-methylphenyl)urea] | 143.6 to 144.2 °C | selectivity A/B [2]: 1.82; IC50 [3]: 1.1 nM; IC50 [4]: 2 nM; Gastric emptying ID50 [5]: 1.8 mg/kg |
| CC1=NC(NC(=O)Nc2cccc(C)c2)C(=O)N(CC(=O)C2CCCCC2)c2c(C)cccc21 (racemic) [Compound (A), N-[(3RS)-1-cyclohexylcarbonylmethyl-2,3-dihydro-5,9-dimethyl-2-oxo-1H-1,4-benzodiazepin-3-yl]-N′-(3-methylphenyl)urea] | 179.2 to 180.9 °C | selectivity A/B [2]: 0.30; IC50 [3]: 3.7 nM; IC50 [4]: 1.1 nM; Gastric emptying ID50 [5]: 0.4 mg/kg |
| Cc1cccc2c1N(CC(=O)C1CC1)C(=O)C(NC(=O)Nc1cccc(-c3nnn[nH]3)c1)N=C2C1CCCCC1 (racemic) [Example 47, N-[(3RS)-5-Cyclohexyl-1-cyclopropylcarbonylmethyl-2,3-dihydro-9-methyl-2-oxo-1H-1,4-benzodiazepin-3-yl]-N′-[3-(tetrazol-5-yl)phenyl]urea] | 227.1 to 233.2 °C | – |
| CCOC(=O)CN1C(=O)C(NC(=O)Nc2cccc(C)c2)N=C(C)c2cccc(C)c21 (racemic) [Example 48-1, N-[(3RS)-2,3-Dihydro-1-ethoxycarbonylmethyl-5,9-dimethyl-2-oxo-1H-1,4-benzodiazepin-3-yl]-N′-(3-methylphenyl)urea] | 229.7 to 231 °C | – |
| Cc1cccc2c1N(Cc1c[nH]cn1)C(=O)C(NC(=O)Nc1cccc(-c3nnn[nH]3)c1)N=C2C1CCCCC1 (racemic) [Example 49, N-[(3RS)-5-Cyclohexyl-2,3-dihydro-1-(imidazol-4-yl)methyl-9-methyl-2-oxo-1H-1,4-benzodiazepin-3-yl]-N′-[3-(tetrazol-5-yl)phenyl]urea] | 168.2 to 179.2 °C | – |
| CCC1=N[C@@H](NC(=O)Nc2cccc(C)c2)C(=O)N(CC(=O)C2CCCCC2)c2c(C)cccc21 [(C), N-[(3R)-1-cyclohexylcarbonylmethyl-5-ethyl-9-methyl-2-oxo-2,3-dihydro-1H-1,4-benzodiazepin-3-yl]-N′-(3-methylphenyl)urea] | – | selectivity A/B [2]: 0.30; IC50 [3]: 1 nM; IC50 [4]: 0.3 nM; Gastric emptying ID50 [5]: 0.23 mg/kg |
